These results are taken from patent publication US12152029B2, “Crystalline forms of a MAGL inhibitor” (H. Lundbeck A/S, priority 2021, dated 2024).

What all share (type): physicochemical
A short description of data set [1]: Solid form conversion of solvates on heating, drying or storage (XRPD).
Data set [2] in a line: Dynamic vapour sorption (DVS). Conditions: for water uptake up to 90% RH / hygroscopicity by DVS analysis: DVS, 25° C.; for water uptake up to 90% RH: 0% RH to 90% RH; for hygroscopicity by DVS analysis: up to 90% RH; for Hygroscopicity in DVS, uptake at 90% RH: Table 3, 90% RH. As to the method: Dynamic vapour sorption (DVS) was measured using a SMS DVS Intrinsic moisture sorption analyser changing the relative humidity from 0% RH to 90% RH. The sample temperature was maintained at 25° C. The humidity was controlled by mixing streams of dry and wet nitrogen, with a total flow rate of 200 ml/min. The relative humidity was measured by a calibrated Rotronic probe (dynamic range of 1.0-100% RH), located near the sample. The weight change of the sample as a function of % RH was constantly monitored by a balance.
Typically, 5-30 mg of sample was placed in a tared mesh stainless steel basket under ambient conditions. The sample was loaded and unloaded at 40% RH and 25° C. (typical room conditions).

Data set [3] is described as follows: Competitive slurry experiments between different forms of Compound (I) HCl salt. On the procedure: Competitive slurry experiments between different form of Compound (I) HCl salt were performed to elucidate the relative thermodynamic stability between unsolvated crystalline forms of interest.
The resulting slurries were stirred for 3 hours to approach equilibrium conditions at either 5 or 50° C., 500 rpm. The following solvents and solvent combinations were utilized: EtOAc, MIBK, THF, MeCN, MeOH, and Acetone.
This dry powder mixture was mixed in a gyroscopic Turbula mixer for 2 hours. Then 50 mg aliquots of the mixture were weighed into HPLC vials and 0.5 mL of the above saturated solutions were added. The resulting suspensions were then stirred for 7 days.
The above competitive slurries were sampled after 1 and 7 days. The samples taken after 1 day were air dried and analyzed with XRPD. The samples taken after 7 days were first analyzed in wet state (covered with a Kapton film) in the XRPD and then subjected to air drying and analyzed again.

[4] abbreviates: listed as Compound (I) HCl form 5.
The mark [5] stands for this setting: listed as Compound (I) HCl form 6.

SMILES strings stand for the structures.

Consider `C1COCCO1.O=C(O)c1ccn(C(=O)N2CCC3(CCCN3Cc3ccc(C(F)(F)F)cc3N3CCCC3)CC2)n1` [Compound (I) 1,4-dioxane solvate form 1, 1-(1-(2-(pyrrolidin-1-yl)-4-(trifluoromethyl)benzyl)-1,8-diazaspiro[4.5]decane-8-carbonyl)-1H-pyrazole-3-carboxylic acid 1,4-dioxane solvate form 1], for which the “solid form change upon drying” value in data set [1] (two hours in a vacuum oven at room temperature) is recorded as “transforms into Compound (I) form 1 upon drying”.
For `CC1CCCO1.Cl.O=C(O)c1ccn(C(=O)N2CCC3(CCCN3Cc3ccc(C(F)(F)F)cc3N3CCCC3)CC2)n1` [Compound (I) HCl salt 2-MeTHF solvate], in data set [1] (40° C./75% RH for 7 days), the “solid form change upon storage” value is on record as “transformed into Compound (I) HCl Form 2”. Besides, in data set [1] (100° C. for 10 minutes), the “solid form change upon drying” value is “transformed into Compound (I) HCl salt form 4”.
On to `Cl.O=C(O)c1ccn(C(=O)N2CCC3(CCCN3Cc3ccc(C(F)(F)F)cc3N3CCCC3)CC2)n1` [Compound (I) HCl salt MIBK solvate], for which the “solid form change upon drying” value in data set [1] (drying the solid (conditions not given)) is reported as “transforms into Compound (I) HCl salt form 2 upon drying”.
`Cl.O=C(O)c1ccn(C(=O)N2CCC3(CCCN3Cc3ccc(C(F)(F)F)cc3N3CCCC3)CC2)n1` [Compound (I) HCl salt form 5]: in data set [2] (setting [4]), the “water uptake up to 90% RH” value is 9.2 % wt and the “hygroscopicity by DVS analysis” value is “moderately hygroscopic”. In data set [2] (listed as Form 5), the “Hygroscopicity in DVS, uptake at 90% RH” value is “(9.2 wt %”.
Regarding `Cl.O=C(O)c1ccn(C(=O)N2CCC3(CCCN3Cc3ccc(C(F)(F)F)cc3N3CCCC3)CC2)n1` [Compound (I) HCl salt form 6], in data set [2] (setting [5]), the “water uptake up to 90% RH” value was 3.1 % wt and the “hygroscopicity by DVS analysis” value is given as “moderately hygroscopic”. Further, the “Hygroscopicity in DVS, uptake at 90% RH” value in data set [2] (listed as Form 6) is “(3.1 wt %”.
In the case of `Cl.O=C(O)c1ccn(C(=O)N2CCC3(CCCN3Cc3ccc(C(F)(F)F)cc3N3CCCC3)CC2)n1` [Compound (I) HCl salt], the “XRPD ‘dry’ after 1 day” value in data set [3] (5 ° C., Acetone) is listed as “HCl salt Form 4”; in data set [3] (5 ° C., EtOAc), “HCl salt Form 2”; in data set [3] (5 ° C., MeCN), “HCl salt Form 5”; in data set [3] (5 ° C., THF), “HCl salt Form 4”; in data set [3] (50 ° C., Acetone), “HCl salt Form 2”; in data set [3] (50 ° C., EtOAc), “HCl salt Form 2”. In addition, the “XRPD ‘dry’ after 1 day” value in data set [3] (50 ° C., MeCN) is “HCl salt Form 5”; in data set [3] (50 ° C., THF), “HCl salt Form 4”. In addition, the “XRPD ‘dry’ after 7 days” value is “HCl salt Form 4” in data set [3] (5 ° C., Acetone); “HCl salt Form 2” in data set [3] (5 ° C., EtOAc); “HCl salt Form 5” in data set [3] (5 ° C., MeCN); “HCl salt Form 4” in data set [3] (5 ° C., THF); “HCl salt Form 2” in data set [3] (50 ° C., Acetone); “HCl salt Form 2” in data set [3] (50 ° C., EtOAc). For the same compound, the “XRPD ‘dry’ after 7 days” value in data set [3] (50 ° C., MeCN) is “HCl salt Form 5”; in data set [3] (50 ° C., THF), “HCl salt Form 4”. Further, the “XRPD ‘wet’ (Kapton film) after 7 days” value in data set [3] (5 ° C., Acetone) is “metastable solvate”; in data set [3] (5 ° C., EtOAc), “metastable solvate”; in data set [3] (5 ° C., MIBK), “metastable solvate”; in data set [3] (5 ° C., MeCN) it was “metastable solvate”; in data set [3] (5 ° C., MeOH), “metastable solvate”; in data set [3] (5 ° C., THF), “metastable solvate”. Moreover, the “XRPD ‘wet’ (Kapton film) after 7 days” value in data set [3] (50 ° C., Acetone) is “metastable solvate”; in data set [3] (50 ° C., EtOAc) it was “metastable solvate”; in data set [3] (50 ° C., MIBK), “metastable solvate”; in data set [3] (50 ° C., MeCN), “metastable solvate”; in data set [3] (50 ° C., MeOH) it was “metastable solvate”; in data set [3] (50 ° C., THF), “metastable solvate”.
For `CC(C)=O.O=C(O)c1ccn(C(=O)N2CCC3(CCCN3Cc3ccc(C(F)(F)F)cc3N3CCCC3)CC2)n1` [Compound (I) acetone solvate, 1-(1-(2-(pyrrolidin-1-yl)-4-(trifluoromethyl)benzyl)-1,8-diazaspiro[4.5]decane-8-carbonyl)-1H-pyrazole-3-carboxylic acid acetone solvate], the “solid form change upon heating” value in data set [1] (heating for 2 min at 175° C.) is listed as “transforms into Compound (I) form 1 at elevated temperature”.
